Results reported in US20020119958A1, “Therapeutic agent for hyperlipidemia” (priority 2001, published 2002).

Legend:
CYP7A gene = test: Northern blot of CYP7A gene expression in hamster liver; format: in vivo; conditions: 14 days
Experimental: (§1) Male Syrian Golden Hamsters (7 weeks old) were purchased from Japan SLC and preliminarily reared for 2 weeks under a high fat diet load (10% coconut oil, 0.12% cholesterol). After the preliminary rearing, the high fat diet was fed to the hamsters while administering compound A. The drug was prepared into a 0.5% methylcellulose suspension, and forcibly administered orally at 30 or 100 mg/kg/day for 14 consecutive days. At 4, 7, 11 and 14 days from the drug administration, blood was drawn from the orbital vein of the animal and total serum cholesterol value was measured. As a control, a drug non-administration group was prepared and treated similarly, which was followed by measurement of the serum total cholesterol value. At the final day of the test, the liver and the ileum were removed from the animals, from which the total RNA was prepared.
(§2) The total RNA was prepared from animal tissues by AGPC method. The prepared total RNA was electrophoresed on an agarose gel containing 6% formaldehyde and transferred onto a nylon membrane by a capillary blotting method. This membrane was hybridized with ^32P-labeled hamster CYP7A or I-BABP probe in 50% formamide at 42° C. for 16 h and the amounts of CYP7A and I-BABP gene expressions were measured. The CYP7A and I-BABP probes were prepared by RT-PCR method from RNA derived from the liver and the ileum, respectively, of the hamsters.

I-BABP gene = test: Northern blot of I-BABP gene expression in hamster ileum; format: in vivo; conditions: 14 days
Experimental: as §1, §2

[1] = Concentration in blood after single oral administration to hamster; format: in vivo; conditions: male, GS, single oral 100 mg/kg, serum
Experimental: The compound A was forcibly given to hamster by single oral administration and measured for shifts in the concentration in blood. The test conditions were as follows. animal: male GS hamster (purchased from Japan SLC), 9 weeks old administration liquid: 20 mg/ml 0.5% methylcellulose suspension diet: not fasted dose: 100 mg/5 ml/kg (p.o.) administration: forcible single oral administration using oral sound blood sampling time: 5, 15, 30, 60, 180, 360 min after administration serum preparation: blood was drawn from the orbital vein and centrifuged using a Separapid tube (coagulation promoting spitz tube containing serum separating agent) to give serum.
An internal standard substance (CV-5386, 0.1 μg) was added to serum (0.1 ml) and admixed. Methanol (0.3 ml) was added and the mixture was stirred. The mixture was centrifuged at 10,000 rpm (FORCE-7 Denver Instrument Company) for 2 min and the resulting supernatant was subjected to centrifugal filtration using Centricut. The obtained filtrate was analyzed by LC-ESI-MS/MS.

LXR = test: Luciferase reporter gene transcription via LXR (test for comparison); format: cell-based; conditions: up to the concentration of 10 μM
Experimental: (§3) A plasmid for compulsory expression of FXR, a luciferase reporter plasmid and a β-galactosidase expression plasmid for correction of gene transfer were introduced into cultured mammalian cells (293 or CV-1) by conventional methods. The cells after gene transfer were treated with CDCA and compound A. Cell lysates were prepared from the cells that underwent treatment with various concentrations of compound A (0.1-10 μM), and a luciferase activity (corrected based on β-galactosidase activity) in the cell lysate was expressed as an FXR dependent transcriptional activity. In the absence of a drug, the luciferase activity value upon activation with CDCA was taken as 100% and the value in the absence of a ligand was taken as 0%. For a test for comparison, a similar experiment was conducted using an LXR expression plasmid instead of the FXR expression plasmid.

[2] = tested on: LXR (liver X receptor) ligand binding domain (LXR-LBD); test: FRET assay with LXR-LBD instead of FXR-LBD (test for comparison); format: biochemical; conditions: up to 50 μM
Experimental: (§4) An Eu-labeled FXR ligand binding domain (FXR-LBD) and an APC-labeled coactivator SRC-1 were mixed to the final concentration of 10 nM and 100 nM, respectively, in a buffer [100 mM Hepes (pH 7.6), 0.125% CHAPS, 125 mM NaF] in the presence of ligand CDCA. Thereto were added various concentrations of compound A (1-50 μM), and the mixture was allowed to react at 4° C. for 12 h. After the reaction, it was exposed to an excitation light at 337 nm and the fluorescence at 665 nm and 620 nm was measured, based on which the fluorescence ratio of 665 nm/620 nm was taken as an FRET fluorescence intensity.
At a concentration of not less than 1 μM, compound A inhibited the binding between FXR-LBD and SRC-1 induced in the presence of CDCA (attenuation of FRET fluorescent intensity). For a test for comparison, a similar experiment was conducted using LXR (liver X receptor) ligand binding domain (LXR-LBD) instead of FXR-LBD.

[3] = tested on: CYP7A gene expression in HepG2 cells; test: CYP7A mRNA in HepG2 cells by quantitative RT-PCR; format: cell-based, human; conditions: CDCA 20 μM + compound A 10 μM, 37° C., 16 h
Experimental: (§5) The cultured HepG2 cells were treated under the following three conditions at 37° C. for 16 h.
(§6) 1) no treatment with CDCA, no treatment with compound A
(§7) 2) treatment with CDCA (20 μM), no treatment with compound A
3) treatment with CDCA (20 μM), treatment with compound A (10 μM)
RNA was prepared from the cells after the treatment and the amount of CYP7A mRNA contained in the RNA was measured by quantitative RT-PCR. For the quantitative RT-PCR, TaqMan One Step Gold reverse transcriptase PCR kit of Applied Biosystems/PerkinElmer was used. For quantification, the following primers (i)-(iii) derived from human CYP7A gene sequence were used.

[4] = Serum total cholesterol in hamsters on high fat diet; format: in vivo, hamster; conditions: 14 days, last day of the test
Experimental: as §1
The blood was drawn from the orbital vein of the animals and centrifuged (3000 rpm, 15 min) to prepare the serum. The total cholesterol concentration of the serum was determined by the enzyme method.

[5] = tested on: I-BABP gene expression in Caco-2 cells; test: I-BABP mRNA in Caco-2 cells by Northern blot; format: cell-based, human; conditions: 100 μM CDCA, compound A at 10 μM
Experimental: The human colon carcinoma derived cell line, Caco-2, is a cell line differentiated like the small intestine and expresses the I-BABP gene. The I-BABP gene expression in Caco-2 cells is promoted by CDCA and an expression control system of I-BABP gene by FXR is considered to be also present in Caco-2 cells (Makishima, M. et al. Science 284, 1362-5 (1999)). Thus, an action on the I-BABP gene expression of compound A as an FXR antagonist was tested using Caco-2 cells.
The Caco-2 cells were cultured in the presence of 100 μM CDCA, and the expression of I-BABP gene was induced. Thereto was added compound A and changes in the I-BABP gene expression level were examined by measuring the amount of I-BABP mRNA by Northern blot analysis.

[6] = biological target: T1, FXR ligand binding domain (FXR-LBD) (Homo sapiens, UniProt Q96RI1); test: FRET assay of CDCA-induced binding of FXR-LBD to coactivator SRC-1; format: biochemical; conditions: in the presence of CDCA; compound A 1-50 μM; 4° C., 12 h
T1 construct: GST
T1 sequence (Q96RI1 262-486 limits assumed): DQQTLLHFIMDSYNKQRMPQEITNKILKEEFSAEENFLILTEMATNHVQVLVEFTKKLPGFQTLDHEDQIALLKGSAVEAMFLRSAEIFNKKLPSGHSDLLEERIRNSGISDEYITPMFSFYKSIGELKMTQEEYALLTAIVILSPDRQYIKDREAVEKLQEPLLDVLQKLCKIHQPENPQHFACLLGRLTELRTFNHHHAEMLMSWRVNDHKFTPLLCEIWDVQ
Experimental: as §4

[7] = tested on: CYP7A protein in HepG2 cells; test: CYP7A protein in HepG2 cells by Western blot; format: cell-based, human; conditions: CDCA 20 μM, compound A 0.03-10 μM, 16 h
Experimental: as §5, §6, §7
3) treatment with CDCA (20 μM), treatment with compound A (0.03, 0.1, 0.3, 1, 3, 10 μM)
After the treatment, the cells were recovered and lysed in a lysis buffer (125 mM Tris HCl (pH 8.0), 2 mM CaCl2, 2% Triton X-100) to prepare a cell lysate. The cell lysate was fractionated by SDS-PAGE, and the protein was transferred onto a PVDF membrane. The CYP7A protein was detected by Western blot analysis using an anti CYP7A antibody and an HRP (horse-radish peroxidase) conjugated 2nd antibody.

HepG2 cells = test: Excretion of bile acid from HepG2 cells; format: cell-based, human; conditions: compound A 1, 10 μM, 24 h
Experimental: The cultured HepG2 cells were plated in a 24-well culture dish at 1.5×10^5 cells/ml, 0.5 ml/well. Four days later, the medium was exchanged to a new one and ^14C-labeled cholesterol (18.5 kBq/well) was added, which was cultured for 24 h (bile acid in the cells was labeled thereby). After the culture, the medium was exchanged to a new one and compound A (final concentration 1, 10 μM) was added. After 24 hours of culture, the medium was recovered and the amount of bile acid excreted into the medium was measured to examine the influence of compound A on bile acid excretion. The amount of excreted bile acid was corrected based on the protein amount of the cell.

FXR = biological target: T2, FXR (Homo sapiens, UniProt Q96RI1); test: CDCA-induced luciferase reporter gene transcription via FXR; format: cell-based; conditions: 293 or CV-1 cells treated with CDCA; compound A 0.1-10 μM
T2 construct: expressed in transfected cells; host or cells: 293 or CV-1
T2 sequence (Q96RI1 1-486): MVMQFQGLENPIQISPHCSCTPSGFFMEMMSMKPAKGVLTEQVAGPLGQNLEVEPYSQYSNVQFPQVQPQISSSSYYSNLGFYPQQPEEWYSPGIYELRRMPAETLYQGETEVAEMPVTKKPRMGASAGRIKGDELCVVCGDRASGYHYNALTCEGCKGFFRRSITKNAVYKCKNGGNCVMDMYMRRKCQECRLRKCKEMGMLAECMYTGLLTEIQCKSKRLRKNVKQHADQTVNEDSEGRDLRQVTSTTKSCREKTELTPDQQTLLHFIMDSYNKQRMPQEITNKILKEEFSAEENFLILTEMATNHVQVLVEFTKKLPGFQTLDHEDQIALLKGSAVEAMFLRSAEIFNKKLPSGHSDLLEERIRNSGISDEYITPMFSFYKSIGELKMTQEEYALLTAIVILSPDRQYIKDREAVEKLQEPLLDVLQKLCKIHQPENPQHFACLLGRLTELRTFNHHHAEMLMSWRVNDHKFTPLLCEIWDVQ
Experimental: as §3

For `CC(C)(C)c1cc(C(C)(C)C)c(O)c(NC(=O)c2ccccc2)c1O` [compound A, N-(3,5-di-tert-butyl-2,6-dihydroxyphenyl)benzamide], the “increase in mRNA level of the CYP7A gene in the liver relative to the drug non-administration group” value (CYP7A gene; 30 mg/kg/day p.o.) was 53%, the “increase in mRNA level of the CYP7A gene in the liver relative to the drug non-administration group” value (CYP7A gene; 100 mg/kg/day p.o.) was 27% and the “decrease in mRNA level of the I-BABP gene in the ileum relative to the drug non-administration group” value (I-BABP gene; 30 mg/kg/day p.o.) was 11%. For the same compound, the “decrease in mRNA level of the I-BABP gene in the ileum relative to the drug non-administration group” value (I-BABP gene; 100 mg/kg/day p.o.) was 16%, the Cmax [1] was 2010 ng/mL and the Tmax [1] was 6 h. For the same compound, the “effect on transcription activity dependent on LXR” value (LXR) was “did not influence the transcription activity”, the “effect on FRET fluorescent intensity with LXR-LBD” value [2] was “did not affect the fluorescent intensity” and the “amount of CYP7A mRNA (no CDCA = 100, 20 μM CDCA = 0)” value [3] was 58. For the same compound, the “percent decrease in serum total cholesterol relative to the drug non-administration group” value ([4]; 30 mg/kg/day p.o.) was 28%, the “percent decrease in serum total cholesterol relative to the drug non-administration group” value ([4]; 100 mg/kg/day p.o.) was 32% and the “mRNA level of I-BABP (Northern blot)” value [5] was “marked decrease”. The “concentration at which the binding between FXR-LBD and SRC-1 was inhibited (attenuation of FRET fluorescent intensity)” value [6] was “not less than 1 μM”, the “CYP7A protein (Western blot)” value [7] was “Accumulation of CYP7A protein” and the “excretion of bile acid into the medium” value (HepG2 cells) was “promoted the excretion of bile acid”. For the same compound, the “concentration at which FXR dependent transcription was repressed” value (FXR) was “not less than 1 μM”.
